Test results from US9115143B2, “Substituted indole derivatives as gamma secretase modulators” (Janssen Pharmaceuticals, Inc., priority 2011, dated 2015).

What was measured:
Aβ42 = experiment: In vivo efficacy B-1a: brain soluble Aβ42 in non-transgenic rodents, ELISA; parameters: species or system mouse; conditions: dose 30 mg/kg oral dosing, brain soluble fraction, untreated animals (Ctrl) set at 100; for response vs control in vivo at 30 mg/kg: Mus musculus, po, read-out: Aβ42 (% vs Ctrl)_Mean; for Aβ42 (% vs Ctrl)_Mean: 30 mg/kg
Text: (§1) To determine whether acute administration of an Aβ42 lowering agent would reduce Aβ42 levels in vivo, non-transgenic rodents, e.g. mice or rats were used. Animals treated with the Aβ42 lowering agent were examined and compared to those untreated or treated with vehicle and brain levels of soluble Aβ42 and total Aβ were quantitated by standard techniques, for example, using ELISA. Treatment periods varied from hours (h) to days and were adjusted based on the results of the Aβ42 lowering once a time course of onset of effect could be established.
(§2) A typical protocol for measuring Aβ42 lowering in vivo is shown but it is only one of many variations that could be used to optimize the levels of detectable Aβ. For example, Aβ42 lowering compounds were formulated in 20% of Captisol® (a sulfobutyl ether of β-cyclodextrin) in water or 20% hydroxypropyl β cyclodextrin. The Aβ42 lowering agents were administered as a single oral dose or by any acceptable route of administration to overnight fasted animals. After 4 h, the animals were sacrificed and Aβ42 levels were analysed.
(§3) Blood was collected by decapitation and exsanguinations in EDTA-treated collection tubes. Blood was centrifuged at 1900 g for 10 minutes (min) at 4° C. and the plasma recovered and flash frozen for later analysis. The brain was removed from the cranium and hindbrain. The cerebellum was removed and the left and right hemisphere were separated. The left hemisphere was stored at −18° C. for quantitative analysis of test compound levels. The right hemisphere was rinsed with phosphate-buffered saline (PBS) buffer and immediately frozen on dry ice and stored at −80° C. until homogenization for biochemical assays.
(§4) Mouse brains from non-transgenic animals were resuspended in 8 volumes of 0.4% DEA (diethylamine)/50 mM NaCl containing protease inhibitors (Roche-11873580001 or 04693159001) per gram of tissue, e.g. for 0.158 g brain, add 1.264 mL of 0.4% DEA. All samples were homogenized in the FastPrep-24 system (MP Biomedicals) using lysing matrix D (MPBio #6913-100) at 6 m/s for 20 seconds. Homogenates were centrifuged at 20800×g for 5 min and supernatants collected. Supernatants were centrifuged at 221.300×g for 50 min. The resulting high speed supernatants were then transferred to fresh eppendorf tubes. Nine parts of supernatant were neutralized with 1 part 0.5 M Tris-HCl pH 6.8 and used to quantify Aβtotal and Aβ42.
(§5) To quantify the amount of Aβtotal and Aβ42 in the soluble fraction of the brain homogenates, Enzyme-Linked-Immunosorbent-Assays were used. Briefly, the standards (a dilution of synthetic Aβ1-40 and Aβ1-42, Bachem) were prepared in 1.5 mL Eppendorf tube in Ultraculture, with final concentrations ranging from 10000 to 0.3 pg/mL. The samples and standards were co-incubated with HRPO-labelled N-terminal antibody JRF/rAμ/2 for Aβ42 detection and with the biotinylated mid-domain antibody 4G8 for Aβtotal detection. 50 μl of conjugate/sample or conjugate/standards mixtures were then added to the antibody-coated plate (the capture antibodies selectively recognize the C-terminal end of Aβ42, antibody JRF/cAβ42/26, for Aβ42 detection and the N-terminus of AB, antibody JRF/rAβ/2, for Aβtotal detection). The plate was allowed to incubate overnight at 4° C. in order to allow formation of the antibody-amyloid complex. Following this incubation and subsequent wash steps the ELISA for Aβ42 quantification was finished by addition of Quanta Blu fluorogenic peroxidase substrate according to the manufacturer's instructions (Pierce Corp., Rockford, Ill.). A reading was performed after 10 to 15 min (excitation 320 nm/emission 420 nm).
In this model a Aβ42 lowering compared to untreated animals would be advantageous, in particular a Aβ42 lowering with at least 10%, more in particular a Aβ42 lowering with at least 20%.
The results are shown in Table 4 (dose 30 mg/kg oral dosing) (value for untreated animals as control (Ctrl) was set at 100): […]

Aβtotal = experiment: In vivo efficacy B-1a/B-2a: brain soluble Aβtotal in non-transgenic rodents, ELISA; parameters: species or system mouse; conditions: dose 30 mg/kg oral dosing, brain soluble fraction, untreated animals (Ctrl) set at 100; for response vs control in vivo at 30 mg/kg: Mus musculus, po, 4 h, read-out: Aβtotal (% vs Ctrl)_Mean; for Aβtotal (% vs Ctrl)_Mean: 30 mg/kg
Text: as §1, §2, §3, §4, §5
For Aβtotal detection, a Streptavidine-Peroxidase-Conjugate was added, followed 60 min later by an additional wash step and addition of Quanta Blu fluorogenic peroxidase substrate according to the manufacturer's instructions (Pierce Corp., Rockford, Ill.). A reading was performed after 10 to 15 min (excitation 320 nm/emission 420 nm). […]

Structure (SMILES) | response vs control in vivo at 30 mg/kg (Aβ42) [%] | response vs control in vivo at 30 mg/kg (Aβtotal) [%] | Aβ42 (% vs Ctrl)_Mean (Aβ42) [% vs Ctrl] | Aβtotal (% vs Ctrl)_Mean (Aβtotal) [% vs Ctrl]
COc1c(C#N)ccc2[nH]c(-c3cn4c(n3)C(c3ccc(F)cc3C)CCC4)cc12 (stereo not drawn) [Compound 74, 2-[8-(4-fluoro-2-methylphenyl)-5,6,7,8-tetrahydroimidazo[1,2-a]pyridin-2-yl]-4-methoxy-1H-indole-5-carbonitrile] | 49 | 85 | – | –
Cc1cc(F)ccc1C1CCCn2nc(-c3cc4nc(-c5cnn(C)c5)ccc4[nH]3)nc21 (stereo not drawn) [Compound 69, 8-(4-fluoro-2-methylphenyl)-5,6,7,8-tetrahydro-2-[5-(1-methyl-1H-pyrazol-4-yl)-1H-pyrrolo[3,2-b]pyridin-2-yl]-[1,2,4]triazolo[1,5-a]pyridine] | 83 | 122 | – | –
Cc1cc(F)ccc1C1OCCn2cc(-c3cc4cc(-c5cnn(C)c5)ccc4[nH]3)nc21 (stereo not drawn) [Compound 99, 8-(4-fluoro-2-methylphenyl)-5,6-dihydro-2-[5-(1-methyl-1H-pyrazol-4-yl)-1H-indol-2-yl]-8H-imidazo[2,1-c][1,4]oxazine] | 63 | 115 | – | –
N#Cc1ccc2[nH]c(-c3nc4n(n3)CCCC4c3cccc(OC(F)(F)F)c3)cc2c1 (stereo not drawn) [Compound 20, 2-[5,6,7,8-tetrahydro-8-[3-(trifluoromethoxy)phenyl][1,2,4]triazolo[1,5-a]pyridin-2-yl]-1H-indole-5-carbonitrile] | 93 | 113 | – | –
COc1c(-c2cnn(C)c2)ccc2[nH]c(-c3cn4c(n3)C(c3ccc(F)cc3C)OCC4)cc12 (stereo not drawn) [Compound 96, 8-(4-fluoro-2-methylphenyl)-5,6-dihydro-2-[4-methoxy-5-(1-methyl-1H-pyrazol-4-yl)-1H-indol-2-yl]-8H-imidazo[2,1-c][1,4]oxazine] | 55 | 92 | – | –
Cc1cc(F)ccc1C1CCCn2cc(-c3cc4cc(C#N)ccc4[nH]3)nc21 (stereo not drawn) [Compound 63, 2-[8-(4-fluoro-2-methylphenyl)-5,6,7,8-tetrahydroimidazo[1,2-a]pyridin-2-yl]-1H-indole-5-carbonitrile] | – | – | 121 | 121
Cc1cn(-c2ccc3[nH]c(-c4nc5n(n4)CCCC5c4ccc(F)cc4C)nc3c2)cn1 (stereo not drawn) [Compound 176, 8-(4-fluoro-2-methylphenyl)-5,6,7,8-tetrahydro-2-[5-(4-methyl-1H-imidazol-1-yl)-1H-benzimidazol-2-yl]-[1,2,4]triazolo[1,5-a]pyridine] | 93 | 101 | – | –
Cc1cn(-c2ccc3[nH]c(-c4nc5n(n4)CCCC5c4ccc(F)cc4C)cc3c2)cn1 (stereo not drawn) [Compound 73, 8-(4-fluoro-2-methylphenyl)-5,6,7,8-tetrahydro-2-[5-(4-methyl-1H-imidazol-1-yl)-1H-indol-2-yl]-[1,2,4]triazolo[1,5-a]pyridine] | 43 | 80 | – | –
Cc1cc(F)ccc1C1CCCn2nc(-c3cc4cc(C#N)ccc4[nH]3)nc21 (stereo not drawn) [Compound 9, 2-[8-(4-fluoro-2-methylphenyl)-5,6,7,8-tetrahydro[1,2,4]triazolo[1,5-a]pyridin-2-yl]-1H-indole-5-carbonitrile] | – | – | 66 | 97
Cc1ccccc1C1CCCn2nc(-c3cc4cc(C#N)ccc4[nH]3)nc21 (stereo not drawn) [Compound 13, 2-[5,6,7,8-tetrahydro-8-(2-methylphenyl)[1,2,4]triazolo[1,5-a]pyridin-2-yl]-1H-indole-5-carbonitrile] | 79 | 80 | – | –
COc1c(C#N)ccc2[nH]c(-c3nc4n(n3)CCOC4c3ccc(F)cc3C)cc12 (stereo not drawn) [Compound 114, 2-[8-(4-fluoro-2-methylphenyl)-5,6-dihydro-8H-[1,2,4]triazolo[5,1-c][1,4]oxazin-2-yl]-4-methoxy-1H-indole-5-carbonitrile] | – | – | 95 | –
